{"source": "patent US7816074B2", "about": "“α4 β2 δGABA-A receptors as a strategy for PMS and alcoholism” (priority 2003, dated 2010)", "key": {"α4β2δ GABAA receptors": {"biological_target": "T1, α4β2δ GABAA receptors (UniProt O14764+P63138+Q9D6F4)", "T1 construct": "expressed in transfected cells", "T1 sequence (Q9D6F4 36-552)": "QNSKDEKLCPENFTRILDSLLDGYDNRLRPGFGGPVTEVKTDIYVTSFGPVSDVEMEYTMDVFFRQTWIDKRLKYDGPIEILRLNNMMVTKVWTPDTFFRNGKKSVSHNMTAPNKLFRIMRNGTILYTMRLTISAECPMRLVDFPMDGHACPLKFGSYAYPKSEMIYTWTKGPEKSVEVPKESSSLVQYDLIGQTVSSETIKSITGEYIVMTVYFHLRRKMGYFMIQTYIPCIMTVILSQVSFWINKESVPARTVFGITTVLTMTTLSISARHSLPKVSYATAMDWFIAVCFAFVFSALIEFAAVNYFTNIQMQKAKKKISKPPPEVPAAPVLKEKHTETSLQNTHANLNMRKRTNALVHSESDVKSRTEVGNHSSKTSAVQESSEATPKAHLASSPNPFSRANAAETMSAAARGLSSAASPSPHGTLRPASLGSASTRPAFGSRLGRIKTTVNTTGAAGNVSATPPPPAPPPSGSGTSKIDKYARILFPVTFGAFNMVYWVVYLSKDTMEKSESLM", "T1 sequence (P63138 25-474 limits assumed)": "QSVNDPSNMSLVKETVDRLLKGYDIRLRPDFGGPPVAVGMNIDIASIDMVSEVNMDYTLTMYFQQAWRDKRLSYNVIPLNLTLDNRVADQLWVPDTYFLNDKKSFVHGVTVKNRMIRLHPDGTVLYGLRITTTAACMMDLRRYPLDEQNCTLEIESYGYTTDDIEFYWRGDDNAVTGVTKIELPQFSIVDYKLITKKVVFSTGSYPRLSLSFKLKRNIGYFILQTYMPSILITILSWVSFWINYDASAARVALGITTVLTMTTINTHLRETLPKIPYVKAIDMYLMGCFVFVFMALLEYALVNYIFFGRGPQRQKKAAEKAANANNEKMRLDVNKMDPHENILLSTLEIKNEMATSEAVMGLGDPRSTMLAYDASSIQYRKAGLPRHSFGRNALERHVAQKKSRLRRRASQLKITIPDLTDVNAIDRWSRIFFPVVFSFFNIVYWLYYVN", "T1 sequence (O14764 17-452 limits assumed)": "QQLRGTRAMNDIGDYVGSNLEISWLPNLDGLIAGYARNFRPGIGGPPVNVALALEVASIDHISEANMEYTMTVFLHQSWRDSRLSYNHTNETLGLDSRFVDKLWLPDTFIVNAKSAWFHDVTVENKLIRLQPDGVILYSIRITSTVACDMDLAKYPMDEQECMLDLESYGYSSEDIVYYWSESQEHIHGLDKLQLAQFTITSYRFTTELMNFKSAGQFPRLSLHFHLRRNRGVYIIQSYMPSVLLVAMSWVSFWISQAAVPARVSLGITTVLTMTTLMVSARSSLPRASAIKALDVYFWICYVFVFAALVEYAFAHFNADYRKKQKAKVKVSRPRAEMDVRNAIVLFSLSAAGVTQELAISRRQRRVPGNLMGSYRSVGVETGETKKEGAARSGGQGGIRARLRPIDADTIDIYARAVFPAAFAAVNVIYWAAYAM", "conditions": "oocytes (ref. 67), cited from earlier work"}, "GABAR α4 subunit": {"tested_on": "GABAR α4 subunit", "test": "Western blot of α4 subunit in hippocampus after steroid and ethanol administration", "assay_type": "in vivo, rat", "protocol": "Animals were administered steroids using one of two protocols: (i) For the 48 hour steroid administration protocol, animals were injected with 10 mg/kg 3α, 5β THP in oil, i.p., on a daily basis for three days and sacrificed 1-2 hour following the final injection. Controls were injected with oil vehicle. […] At this time, the capsule was removed and the animals were injected with 17 β estradiol (2 μgs/animal) in order to reset their cycle. Animals were sacrificed 24 hours later. […] In all cases, implantation and removal of capsules were performed under halothane anesthesia. […] Therefore, this study employed the 5β isomer of the steroid.\nIn some groups of animals, either ethanol (0.5 g/kg in saline) or saline vehicle was administered i.p. (3×, every 40 minutes) for the final 2 hours of the respective steroid administration or withdrawal paradigm. The use of multiple injections of low doses of ethanol would approximate ethanol consumption in the human more closely than would a single injection. For the 48 hour steroid administration paradigm, animals received their first ethanol injection immediately after the steroid injection, and subsequent injections at 40 minute intervals. In all cases, animals were sacrificed 40 minutes after the final ethanol injection (2 hours after the first ethanol injection and final steroid injection). All animal protocols were carried out with the approval of the Institutional Animal Care and Use Committee.\nHippocampi removed from steroid or vehicle-treated animals were homogenized, and membranes prepared as previously described (65). Following electrophoresis on 8% SDS polyacrylamide gels, membranes were transferred to a nitrocellulose membrane (Bio-Rad, Hercules, Calif.). α4 subunit levels were detected by evaluating the band density at 67 kDa after probing with a polyclonal antibody (64). Membranes were incubated for 1-2 hours at room temperature with a 1:5000 dilution of horseradish peroxidase-conjugated donkey anti-rabbit IgG (Amersham, Arlington Heights, Ill.), and visualized with enhanced chemiluminescence with varying concentrations of protein in the linear range. Immunoreactive band densities were quantified using a CCD camera (UMAX Scanner) and one-Dscan software, which uses multiple Gaussian fits to achieve accurate band density profiles."}}, "note": "Read-outs that look alike come from different tables or passages of the source.", "data": [{"smiles": "CCO", "note": "[ethanol]", "values": [{"measurement": "effect on α4β2δ GABAA receptor", "setting": "α4β2δ GABAA receptors; ethanol 1-3 mM", "value": "potentiated"}, {"measurement": "effect on α4β2δ GABAA receptor", "setting": "α4β2δ GABAA receptors; ethanol >10 mM", "value": "ineffective"}, {"measurement": "α4 expression", "setting": "GABAR α4 subunit; 2 hour ethanol administration after progesterone withdrawal", "value": "unchanged from control levels"}, {"measurement": "α4 expression in hippocampus", "setting": "GABAR α4 subunit; ethanol 0.5 g/kg i.p. across final 2 hours of 48 h 3α,5β-THP administration", "value": "reversed the increase"}, {"measurement": "α4 levels", "setting": "GABAR α4 subunit; ethanol administered without steroid", "value": "no significant effect"}]}]}
